Assays:
[1] = system: ducksalad; assay: Test C flooded paddy test; type: in vivo, Heteranthera limosa; conditions: for Plant response rating, Ducksalad: 500 g ai/ha, visual rating after 12 to 14 days
[2] = system: lambsquarters; assay: Test C pre-/postemergence herbicide test; type: in vivo, Chenopodium album; conditions: for Plant response rating, Lambsquarters: preemergence
Procedure, shortened: (§1)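 Visual injury scores run from 0 (no effect) to 100 (complete control), assessed relative to untreated controls 12 to 14 days after treatment in the greenhouse. Chemicals were formulated in a non-phytotoxic solvent mixture with surfactant and applied to soil after planting or to emerged plants at the 1- to 4-leaf stage.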

[3] = system: giant foxtail; assay: Test C pre-/postemergence herbicide test; type: in vivo, Setaria faberi; conditions: for Plant response rating, Foxtail, Giant: preemergence
Procedure, shortened: as §1

[4] = system: woolly cupgrass; assay: Test C pre-/postemergence herbicide test; type: in vivo, Eriochloa villosa; conditions: for Plant response rating, Cupgrass, Woolly: preemergence
Procedure, shortened: as §1

[5] = system: corn; assay: Test C pre-/postemergence herbicide test; type: in vivo, Zea mays; conditions: for Plant response rating, Corn: preemergence
Procedure, shortened: as §1

[6] = system: common (oilseed) sunflower; assay: Test C pre-/postemergence herbicide test; type: in vivo, Helianthus annuus; conditions: for Plant response rating, Sunflower: preemergence
Procedure, shortened: as §1

[7] = system: rice; assay: Test C flooded paddy test; type: in vivo, Oryza sativa; conditions: for Plant response rating, Rice: 500 g ai/ha, visual rating after 12 to 14 days
Procedure, shortened: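 Postemergence sprays applied to plants 2 to 18 cm tall (1- to 4-leaf stage); paddy species grown to 2-leaf stage under flooding. After 12 to 14 days in greenhouse, visual rating versus untreated controls on 0–100 scale (0 no effect, 100 complete control).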

[8] = system: smallflower umbrella sedge; assay: Test C flooded paddy test; type: in vivo, Cyperus difformis
[9] = system: morningglory; assay: Test C pre-/postemergence herbicide test; type: in vivo, Ipomoea coccinea; set-up: key to Plant response rating, Morningglory: 0 = no effect, 100 = complete control; conditions: for Plant response rating, Morningglory: preemergence
Procedure, shortened: as §1

[10] = system: Surinam grass; assay: Test C pre-/postemergence herbicide test; type: in vivo, Urochloa decumbens; conditions: for Plant response rating, Surinam Grass: preemergence
Procedure, shortened: as §1

[11] = system: yellow nutsedge; assay: Test C pre-/postemergence herbicide test; type: in vivo, Cyperus esculentus; conditions: for Plant response rating, Nutsedge, Yellow: preemergence
Procedure, shortened: as §1

[12] = 125 g ai/ha, scale 0 to 100 (0 no effect, 100 complete control)
[13] = 250 g ai/ha, scale of 0 to 100, 0 is no effect, 100 is complete control
[14] = scale 0 to 100 (0 no effect, 100 complete control)
[15] = 125 g ai/ha, scale 0 (no effect) to 100 (complete control), visual, 12 to 14 days
[16] = 500 g ai/ha, scale 0 to 100 (0 no effect, 100 complete control), visual, 12 to 14 days
[17] = 62 g ai/ha, scale 0 to 100 (0 no effect, 100 complete control)
[18] = Preemergence, 500 g ai/ha, scale 0 to 100, 0 no effect, 100 complete control
[19] = 250 g ai/ha, scale 0 to 100 (0 no effect, 100 complete control), visual, 12 to 14 days

CCc1nn(C(C)(C)C)cc1C(=O)Nc1cc(C(=O)N(C)C)ccn1 [Compound 293]
Ducksalad plant response rating ([1]; 62 g ai/ha, scale 0 to 100): 0
Ducksalad plant response rating [1, 12]: 65
Ducksalad plant response rating [1, 13]: 80
Plant response rating, Ducksalad [1, 14]: 95
Plant response rating, Lambsquarters ([2]; 62 g ai/ha, scale 0 to 100): 100
Plant response rating, Lambsquarters [2, 15]: 100
Plant response rating, Lambsquarters ([2]; 250 g ai/ha, scale 0-100): 100
Plant response rating, Lambsquarters [2, 16]: 100
Plant response rating, Foxtail, Giant ([3]; 62 g ai/ha, scale 0 to 100): 10
Plant response rating, Foxtail, Giant [3, 15]: 70
Plant response rating, Foxtail, Giant ([3]; 250 g ai/ha, scale 0-100): 100
Plant response rating, Foxtail, Giant [3, 16]: 100
Plant response rating, Cupgrass, Woolly ([4]; 62 g ai/ha, scale 0 to 100): 45
Plant response rating, Cupgrass, Woolly [4, 15]: 70
Plant response rating, Cupgrass, Woolly ([4]; 250 g ai/ha, scale 0-100): 95
Plant response rating, Cupgrass, Woolly [4, 16]: 100
Plant response rating, Corn [5, 15]: 10
Plant response rating, Corn ([5]; 250 g ai/ha, scale 0-100): 80
Plant response rating, Corn [5, 16]: 95
Plant response rating, Sunflower ([6]; 62 g ai/ha, scale 0 to 100): 10
Plant response rating, Sunflower ([6]; 250 g ai/ha, scale 0-100): 65
Rice plant response rating ([7]; 62 g ai/ha, scale 0 to 100): 0
Rice plant response rating [7, 12]: 30
Rice plant response rating [7, 13]: 65
Plant response rating, Rice [7, 14]: 80
Sedge, Umbrella plant response rating ([8]; 62 g ai/ha, scale 0 to 100): 20
Sedge, Umbrella plant response rating [8, 12]: 75
Sedge, Umbrella plant response rating [8, 13]: 80
Plant response rating, Sedge, Umbrella ([8]; 500 g ai/ha, visual rating after 12 to 14 days, scale 0 to 100 (0 no effect, 100 complete control)): 90
Plant response rating, Morningglory ([9]; 250 g ai/ha, scale 0-100): 100
Plant response rating, Surinam Grass ([10]; 250 g ai/ha, scale 0-100): 100
Plant response rating, Surinam Grass [10, 16]: 100
Plant response rating, Nutsedge, Yellow ([11]; 62 g ai/ha, scale 0 to 100): 0
Plant response rating, Nutsedge, Yellow [11, 15]: 0
Plant response rating, Nutsedge, Yellow ([11]; 250 g ai/ha, scale 0-100): 0
Plant response rating, Nutsedge, Yellow [11, 16]: 20

CCn1nc(C(C)(C)C)cc1C(=O)Nc1cccc(C(N)=O)n1 [Compound 162, 6-[[[3-(1,1-dimethylethyl)-1-ethyl-1H-pyrazol-5-yl]carbonyl]amino]-2-pyridinecarboxamide]
Ducksalad plant response rating [1, 17]: 70
Ducksalad plant response rating [1, 12]: 85
Ducksalad plant response rating [1, 13]: 95
Plant response rating, Ducksalad [1, 14]: 100
Plant response rating, Lambsquarters ([2]; 62 g ai/ha, scale 0 to 100): 80
Plant response rating, Lambsquarters [2, 15]: 95
Lambsquarters plant response rating [2, 18]: 100
Plant response rating, Foxtail, Giant ([3]; 62 g ai/ha, scale 0 to 100): 55
Plant response rating, Foxtail, Giant [3, 15]: 60
Plant response rating, Foxtail, Giant [3, 19]: 60
Foxtail, Giant plant response rating [3, 18]: 75
Plant response rating, Cupgrass, Woolly ([4]; 62 g ai/ha, scale 0 to 100): 0
Plant response rating, Cupgrass, Woolly [4, 15]: 0
Plant response rating, Cupgrass, Woolly [4, 19]: 0
Cupgrass, Woolly plant response rating [4, 18]: 100
Plant response rating, Corn ([5]; 62 g ai/ha, scale 0 to 100): 20
Plant response rating, Corn [5, 15]: 70
Plant response rating, Corn [5, 19]: 75
Corn plant response rating [5, 18]: 75
Plant response rating, Sunflower ([6]; 62 g ai/ha, scale 0 to 100): 0
Plant response rating, Sunflower [6, 15]: 15
Sunflower plant response rating [6, 18]: 90
Rice plant response rating [7, 17]: 55
Rice plant response rating [7, 12]: 60
Rice plant response rating [7, 13]: 70
Plant response rating, Rice [7, 14]: 75
Sedge, Umbrella plant response rating [8, 17]: 70
Sedge, Umbrella plant response rating [8, 13]: 75
Plant response rating, Morningglory ([9]; 62 g ai/ha, scale 0 to 100): 45
Plant response rating, Morningglory [9, 15]: 100
Morningglory plant response rating [9, 18]: 100
Plant response rating, Surinam Grass ([10]; 62 g ai/ha, scale 0 to 100): 0
Plant response rating, Surinam Grass [10, 15]: 75
Surinam Grass plant response rating [10, 18]: 95
Plant response rating, Nutsedge, Yellow ([11]; 62 g ai/ha, scale 0 to 100): 0
Plant response rating, Nutsedge, Yellow [11, 15]: 20
Nutsedge, Yellow plant response rating [11, 18]: 60

— US20060069132A1, “Azolecarboxamide herbicides” (priority 2004, published 2006)
